Results taken from US20240116912A1, “COMPOUNDS AND METHODS FOR MODULATING FXR” (Terns Pharmaceuticals, Inc., priority 2020, published 2024).
Where “and” joins values, the source holds several entries; their conditions need not be identical. Equal entries are not always repeated.

Key:
[1] = target: ligand binding domain (LBD) of recombinant human FXR (Homo sapiens (Human), UniProt Q96RI1); experiment: FXR cell free coactivator (SRC-1) recruitment assay, TR-FRET; settings: FXR LBD (amino acids 244-476) with labeled SRC-1 domain, 25° C. for 60 minutes, activity relative to CDCA maximum; read-out: EC50 FXR- Biochemical TR-FRET/μM
Protocol: A cell free coactivator recruitment assay was developed for FXR, to measure the functional potency of novel FXR compounds. In this assay, novel FXR compounds were bound to the ligand binding domain (LBD) of recombinant human FXR. The ability of this liganded homodimeric complex to recruit the co-activator protein steroid receptor coactivator 1 (SRC-1) was measured using Time-Resolved Fluorescence Resonance Energy Transfer (TR-FRET).
The LBD of human FXR (amino acids 244-476) was cloned into an expression vector for protein expression in SF9 insect cells. Purified FXR LBD was incubated in TR-FRET coregulator buffer G (Eurofins) with test compounds (0-10 micromolar) and a labeled nuclear receptor interaction domain of SRC-1 at 25° C. for 60 minutes (final DMSO vehicle concentration was 1.2%). Assays were analyzed using an Envision TR-FRET reader (PerkinElmer Life and Analytical Sciences). Compound activity at each concentration was defined as a percentage of the maximal activity of the natural FXR ligand agonist chenodeoxycholic acid (CDCA) generating a dose response curve.

[2] = target: full length human FXR protein (Homo sapiens (Human), UniProt Q96RI1); experiment: FXR cellular assay (FXR-SRCP β-gal enzyme fragment complementation in CHO-K1 cells, chemiluminescence); type: cell-based; settings: CHO-K1 cells with SRCP-EA and ProLink-labeled FXR, 0-10 micromolar compound, 37° C. for 6h, read-out: EC50 FXR-cell Luminescence/
From the text: A cell based FXR assay was used to detect protein-protein interactions between an activated (ligand-bound), full length human FXR protein and a nuclear fusion protein containing a Steroid Receptor Coactivator Peptide (SCRP) domain. In this approach, two weakly complementing fragments of the 3-gal enzyme were expressed within stably transfected Chinese Hamster Ovary (CHO-K1) cells. The complementing fragments of the 3-gal enzyme (ProLink, PK; and Enzyme Acceptor, EA) were translationally fused to the C-terminus of a full-length FXR and to the SRCP, respectively. Complementation was driven by the protein-protein interaction between SRCP-EA and a ProLink-labeled FXR. Upon FXR-SRCP binding, the two fragments of 3-gal complement, forming a functional enzyme capable of hydrolyzing a substrate molecule and generating a chemiluminescent signal.
CHO-K1 cells containing SRCP-EA and ProLink-labeled FXR were plated in 384-well microplates and incubated at 37° C. overnight. A positive control FXR agonist, GW4064 (0-10 micromolar), or test compounds (0-10 micromolar) were added to plated cells and incubated at 37° C. for 6h (final DMSO vehicle concentration was 1%). The assay signal was generated by addition of 50% (v/v) detection reagent (19:5:1, cell assay buffer: substrate reagent 1: substrate reagent 2, DiscoverX) followed by incubation for 1h at ambient room temperature. Microplates were analyzed using an Envision reader (PerkinElmer Life and Analytical Sciences, Signal=chemiluminescence).

Sequence of full length human FXR protein (Q96RI1 whole entry, the tested form may be a part): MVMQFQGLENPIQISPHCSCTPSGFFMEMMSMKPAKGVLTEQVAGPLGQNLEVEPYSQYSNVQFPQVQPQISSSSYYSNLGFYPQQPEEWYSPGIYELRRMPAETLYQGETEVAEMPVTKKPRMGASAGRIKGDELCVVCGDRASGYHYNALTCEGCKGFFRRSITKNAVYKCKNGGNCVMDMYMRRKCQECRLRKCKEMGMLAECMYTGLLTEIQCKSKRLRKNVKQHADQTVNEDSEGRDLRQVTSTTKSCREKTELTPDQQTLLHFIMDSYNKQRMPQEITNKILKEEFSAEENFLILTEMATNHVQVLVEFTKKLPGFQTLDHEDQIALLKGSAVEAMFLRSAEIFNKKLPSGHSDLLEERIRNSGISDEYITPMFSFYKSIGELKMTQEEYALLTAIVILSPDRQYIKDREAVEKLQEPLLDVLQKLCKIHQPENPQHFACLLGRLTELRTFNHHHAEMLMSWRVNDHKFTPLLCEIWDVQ
Sequence of ligand binding domain (LBD) of recombinant human FXR (Q96RI1 254-486): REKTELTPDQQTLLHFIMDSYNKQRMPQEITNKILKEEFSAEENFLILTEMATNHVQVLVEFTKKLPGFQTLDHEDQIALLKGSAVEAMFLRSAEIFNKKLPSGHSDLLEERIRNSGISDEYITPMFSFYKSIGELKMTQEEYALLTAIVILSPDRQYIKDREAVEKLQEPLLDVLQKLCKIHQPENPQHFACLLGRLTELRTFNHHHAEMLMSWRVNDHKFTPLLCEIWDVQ
Sequence of ligand binding domain (LBD) of recombinant human FXR (Q15788 whole entry partner, the tested form may be a part): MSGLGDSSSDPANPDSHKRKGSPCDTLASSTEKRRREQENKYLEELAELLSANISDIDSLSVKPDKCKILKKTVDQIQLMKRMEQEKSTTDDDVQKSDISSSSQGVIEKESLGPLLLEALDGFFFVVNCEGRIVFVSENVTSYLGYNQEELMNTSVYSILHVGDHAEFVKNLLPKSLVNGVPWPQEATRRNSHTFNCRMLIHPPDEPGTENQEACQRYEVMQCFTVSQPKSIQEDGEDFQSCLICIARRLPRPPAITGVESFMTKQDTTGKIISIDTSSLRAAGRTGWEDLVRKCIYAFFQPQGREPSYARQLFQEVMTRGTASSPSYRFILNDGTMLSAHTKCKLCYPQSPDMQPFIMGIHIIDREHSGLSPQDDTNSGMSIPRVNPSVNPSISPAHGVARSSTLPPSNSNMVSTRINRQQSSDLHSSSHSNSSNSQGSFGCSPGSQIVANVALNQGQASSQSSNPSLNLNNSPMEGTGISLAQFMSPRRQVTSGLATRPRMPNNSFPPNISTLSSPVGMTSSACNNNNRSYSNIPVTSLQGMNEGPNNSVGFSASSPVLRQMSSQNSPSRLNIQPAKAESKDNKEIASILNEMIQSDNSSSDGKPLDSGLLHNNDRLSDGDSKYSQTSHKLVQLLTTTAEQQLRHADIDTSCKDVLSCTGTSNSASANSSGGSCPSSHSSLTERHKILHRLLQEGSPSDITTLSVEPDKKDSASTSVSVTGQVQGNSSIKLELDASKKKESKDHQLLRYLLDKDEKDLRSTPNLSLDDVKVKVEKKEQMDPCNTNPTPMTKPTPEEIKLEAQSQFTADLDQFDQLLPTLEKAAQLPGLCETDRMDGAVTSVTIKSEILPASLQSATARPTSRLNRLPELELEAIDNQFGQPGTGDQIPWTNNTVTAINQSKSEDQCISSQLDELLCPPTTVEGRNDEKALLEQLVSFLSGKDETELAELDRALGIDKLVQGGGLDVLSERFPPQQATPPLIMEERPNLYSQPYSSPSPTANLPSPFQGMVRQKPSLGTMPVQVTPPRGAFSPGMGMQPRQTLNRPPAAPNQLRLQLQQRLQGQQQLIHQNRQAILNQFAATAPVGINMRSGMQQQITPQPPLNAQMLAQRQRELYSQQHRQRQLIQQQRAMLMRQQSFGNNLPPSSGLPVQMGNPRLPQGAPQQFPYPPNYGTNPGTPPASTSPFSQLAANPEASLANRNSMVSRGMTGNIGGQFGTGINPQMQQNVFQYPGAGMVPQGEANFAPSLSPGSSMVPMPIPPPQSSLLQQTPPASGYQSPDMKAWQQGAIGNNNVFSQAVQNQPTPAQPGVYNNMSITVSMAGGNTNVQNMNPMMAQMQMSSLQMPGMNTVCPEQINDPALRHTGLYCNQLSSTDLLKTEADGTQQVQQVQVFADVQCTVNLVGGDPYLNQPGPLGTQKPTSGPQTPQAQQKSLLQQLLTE

SMILES | EC50 [1] | EC50 [2]
O=C(c1noc(=O)[nH]1)N1CCC(OCc2c(-c3c(Cl)cccc3Cl)noc2C2CC2)CC1 [Example 1, 3-(4-((5-cyclopropyl-3-(2,6-dichlorophenyl)isoxazol-4-yl)methoxy)piperidine-1-carbonyl)-1,2,4-oxadiazol-5(4H)-one] | 3.18 µM | 1130 nM
Clc1cccc(Cl)c1-c1noc(C2CC2)c1COC1CCN(c2ccc(C3=NN3)cc2)CC1 [Example 2, 4-(((1-(4-(1H-diazirin-3-yl)phenyl)piperidin-4-yl)oxy)methyl)-5-cyclopropyl-3-(2,6-dichlorophenyl)isoxazole] | 2.89 µM | 691 nM
O=c1[nH]c(-c2ccc(N3CCC(OCc4c(-c5c(Cl)cccc5Cl)noc4C4CC4)CC3)cc2)no1 [Example 3, 3-(4-(4-((5-cyclopropyl-3-(2,6-dichlorophenyl)isoxazol-4-yl)methoxy)piperidin-1-yl)phenyl)-1,2,4-oxadiazol-5(4H)-one] | 0.0036 µM and 0.0029 µM | 97 nM and 49.8 nM
O=c1cn[nH]c(=O)n1-c1ccc(N2CCC(OCc3c(-c4c(Cl)cccc4Cl)noc3C3CC3)CC2)nc1 [Example 4, 4-(6-(4-((5-cyclopropyl-3-(2,6-dichlorophenyl)isoxazol-4-yl)methoxy)piperidin-1-yl)pyridin-3-yl)-1,2,4-triazine-3,5(2H,4H)-dione] | 0.22 µM | 1470 nM
O=c1[nH]c(-c2ccc(N3CCC(OCc4c(-c5ccccc5OC(F)(F)F)noc4C4CC4)CC3)nc2)no1 [Example 75, 3-(6-(4-((5-cyclopropyl-3-(2-(trifluoromethoxy)phenyl)isoxazol-4-yl)methoxy)piperidin-1-yl)pyridin-3-yl)-1,2,4-oxadiazol-5(4H)-one] | – | 382 nM
C[C@@H]1C[C@H](OCc2c(-c3ccccc3OC(F)(F)F)noc2C2CC2)CCN1c1ccc(-c2noc(=O)[nH]2)cn1 [Example 76, 3-(6-((2R,4R)-4-((5-cyclopropyl-3-(2-(trifluoromethoxy)phenyl)isoxazol-4-yl)methoxy)-2-methylpiperidin-1-yl)pyridin-3-yl)-1,2,4-oxadiazol-5(4H)-one] | – | 196 nM
O=c1[nH]c(-c2ccc(N3[C@@H]4CC[C@H]3C[C@@H](OCc3c(-c5ccccc5Cl)noc3C3CC3)C4)nc2)no1 [Example 77, 3-(6-((1R,3r,5S)-3-((3-(2-chlorophenyl)-5-cyclopropylisoxazol-4-yl)methoxy)-8-azabicyclo[3.2.1]octan-8-yl)pyridin-3-yl)-1,2,4-oxadiazol-5(4H)-one] | – | 69.5 nM
O=c1[nH]c(-c2ccc(N3[C@@H]4CC[C@H]3C[C@@H](OCc3c(-c5c(F)cccc5F)noc3C3CC3)C4)nc2)no1 [Example 78, 3-(6-((1R,3r,5S)-3-((5-cyclopropyl-3-(2,6-difluorophenyl)isoxazol-4-yl)methoxy)-8-azabicyclo[3.2.1]octan-8-yl)pyridin-3-yl)-1,2,4-oxadiazol-5(4H)-one] | – | 154 nM
O=c1[nH]c(-c2ccc(N3CC[C@@H](OCc4c(-c5ccccc5OC(F)(F)F)noc4C4CC4)[C@H](F)C3)cc2)no1 [Example 79, 3-(4-((3R,4R)-4-((5-cyclopropyl-3-(2-(trifluoromethoxy)phenyl)isoxazol-4-yl)methoxy)-3-fluoropiperidin-1-yl)phenyl)-1,2,4-oxadiazol-5(4H)-one] | – | 312 nM
O=c1[nH]c(-c2ccc(N3CC[C@H](OCc4c(-c5ccccc5OC(F)(F)F)noc4C4CC4)[C@@H](F)C3)cc2)no1 [Example 80, 3-(4-((3S,4S)-4-((5-cyclopropyl-3-(2-(trifluoromethoxy)phenyl)isoxazol-4-yl)methoxy)-3-fluoropiperidin-1-yl)phenyl)-1,2,4-oxadiazol-5(4H)-one] | – | 641 nM
O=c1cc(-c2ccc(N3[C@@H]4CC[C@H]3C[C@@H](OCc3c(-c5ccccc5OC(F)(F)F)noc3C3CC3)C4)cc2)o[nH]1 [Example 81, 5-(4-((1R,3r,5S)-3-((5-cyclopropyl-3-(2-(trifluoromethoxy)phenyl)isoxazol-4-yl)methoxy)-8-azabicyclo[3.2.1]octan-8-yl)phenyl)isoxazol-3(2H)-one] | – | 175 nM
N#Cc1nn(-c2ccc(N3CCC(OCc4c(-c5c(Cl)cccc5Cl)noc4C4CC4)CC3)nc2)c(=O)[nH]c1=O [Example 82, 2-(6-(4-((5-cyclopropyl-3-(2,6-dichlorophenyl)isoxazol-4-yl)methoxy)piperidin-1-yl)pyridin-3-yl)-3,5-dioxo-2,3,4,5-tetrahydro-1,2,4-triazine-6-carbonitrile] | – | 1830 nM
N#Cc1n[nH]c(=O)n(-c2ccc(N3CCC(OCc4c(-c5c(Cl)cccc5Cl)noc4C4CC4)CC3)nc2)c1=O [Example 83, 4-(6-(4-((5-cyclopropyl-3-(2,6-dichlorophenyl)isoxazol-4-yl)methoxy)piperidin-1-yl)pyridin-3-yl)-3,5-dioxo-2,3,4,5-tetrahydro-1,2,4-triazine-6-carbonitrile] | – | 5250 nM
O=c1cc(-c2ccc(N3CCC(OCc4c(-c5ccccc5OC(F)(F)F)noc4C4CC4)C(F)(F)C3)cc2)o[nH]1 (centres unmarked) [Example 84, 5-(4-(4-((5-cyclopropyl-3-(2-(trifluoromethoxy)phenyl)isoxazol-4-yl)methoxy)-3,3-difluoropiperidin-1-yl)phenyl)isoxazol-3(2H)-one] | – | 1530 nM
N#Cc1nn(-c2ccc(N3CCC(OCc4c(-c5ccccc5OC(F)(F)F)noc4C4CC4)CC3)cc2)c(=O)[nH]c1=O [Example 85, 2-(4-(4-((5-cyclopropyl-3-(2-(trifluoromethoxy)phenyl)isoxazol-4-yl)methoxy)piperidin-1-yl)phenyl)-3,5-dioxo-2,3,4,5-tetrahydro-1,2,4-triazine-6-carbonitrile] | – | 755 nM
N#Cc1n[nH]c(=O)n(-c2ccc(N3CCC(OCc4c(-c5ccccc5OC(F)(F)F)noc4C4CC4)CC3)cc2)c1=O [Example 86, 4-(4-(4-((5-cyclopropyl-3-(2-(trifluoromethoxy)phenyl)isoxazol-4-yl)methoxy)piperidin-1-yl)phenyl)-3,5-dioxo-2,3,4,5-tetrahydro-1,2,4-triazine-6-carbonitrile] | – | 22900 nM
O=c1cc(-c2ccc(N3CCC(OCc4c(-c5c(Cl)cccc5Cl)noc4C4CC4)C(F)(F)C3)cc2)o[nH]1 (centres unmarked) [Example 87, 5-(4-(4-((5-cyclopropyl-3-(2,6-dichlorophenyl)isoxazol-4-yl)methoxy)-3,3-difluoropiperidin-1-yl)phenyl)isoxazol-3(2H)-one] | – | 261 nM
O=c1cnn(-c2ccc(N3[C@@H]4CC[C@H]3C[C@@H](OCc3c(-c5ccccc5OC(F)(F)F)noc3C3CC3)C4)cc2)c(=O)[nH]1 [Example 88, 2-(4-((1R,3r,5S)-3-((5-cyclopropyl-3-(2-(trifluoromethoxy)phenyl)isoxazol-4-yl)methoxy)-8-azabicyclo[3.2.1]octan-8-yl)phenyl)-1,2,4-triazine-3,5(2H,4H)-dione] | – | 460 nM
N#Cc1nn(-c2ccc(N3[C@@H]4CC[C@H]3C[C@@H](OCc3c(-c5ccccc5OC(F)(F)F)noc3C3CC3)C4)cc2)c(=O)[nH]c1=O [Example 89, 2-(4-((1R,3r,5S)-3-((5-cyclopropyl-3-(2-(trifluoromethoxy)phenyl)isoxazol-4-yl)methoxy)-8-azabicyclo[3.2.1]octan-8-yl)phenyl)-3,5-dioxo-2,3,4,5-tetrahydro-1,2,4-triazine-6-carbonitrile] | – | 1000 nM
